Assay [1] addresses T1, RARα (Homo sapiens, UniProt P10276).
T1 sequence (P10276 1-462): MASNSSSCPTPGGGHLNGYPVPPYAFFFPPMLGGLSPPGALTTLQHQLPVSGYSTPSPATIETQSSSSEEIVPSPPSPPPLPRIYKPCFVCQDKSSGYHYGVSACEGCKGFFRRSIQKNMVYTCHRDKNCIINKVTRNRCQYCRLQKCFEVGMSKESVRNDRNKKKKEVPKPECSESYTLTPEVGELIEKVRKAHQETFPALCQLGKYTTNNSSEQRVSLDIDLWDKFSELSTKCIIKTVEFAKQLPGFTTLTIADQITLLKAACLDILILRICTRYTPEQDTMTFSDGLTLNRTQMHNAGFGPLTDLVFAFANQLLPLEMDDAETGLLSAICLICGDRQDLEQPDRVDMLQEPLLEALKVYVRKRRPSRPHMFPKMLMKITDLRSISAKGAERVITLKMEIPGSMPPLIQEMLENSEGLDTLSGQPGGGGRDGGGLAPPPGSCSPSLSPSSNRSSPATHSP
As to the kind of experiment: ligand binding assay. The settings on record: read-out: RAR Bind. Ki α.
Source text: (§1) The results of the ligand binding assay are expressed in Ki numbers.

Assay [2] concerns the target T2, RXRβ (UniProt P28704).
T2 sequence (P28704 1-520): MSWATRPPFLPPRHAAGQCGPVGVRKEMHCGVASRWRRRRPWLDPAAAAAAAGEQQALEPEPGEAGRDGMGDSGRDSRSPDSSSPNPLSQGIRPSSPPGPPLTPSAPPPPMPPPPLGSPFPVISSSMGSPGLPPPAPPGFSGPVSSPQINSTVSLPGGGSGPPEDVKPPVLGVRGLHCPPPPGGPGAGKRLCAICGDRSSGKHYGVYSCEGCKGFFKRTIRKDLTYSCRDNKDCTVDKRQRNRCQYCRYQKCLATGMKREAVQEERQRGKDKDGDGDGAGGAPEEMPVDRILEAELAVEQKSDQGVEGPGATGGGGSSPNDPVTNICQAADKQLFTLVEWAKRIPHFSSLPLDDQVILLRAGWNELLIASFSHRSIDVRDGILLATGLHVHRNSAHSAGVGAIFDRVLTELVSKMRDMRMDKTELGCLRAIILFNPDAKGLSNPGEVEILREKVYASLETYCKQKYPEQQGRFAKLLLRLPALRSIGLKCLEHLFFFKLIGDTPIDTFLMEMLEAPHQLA
Put plainly: holoreceptor transactivation assay. The settings on record: percentage compared to the standard compound.
Source text: (§2) The results obtained in this assay are expressed in EC50 numbers, as they are also in the chimeric receptor transactivation assay.
(§3) Particularly, the transactivation data pertaining to activation of the RAR receptors were obtained in the chimeric assay, and the transactivation data pertaining to the activation of RXR receptors were obtained in the holoreceptor assay.

For assay [3], the target named is T3, RARγ (Homo sapiens, UniProt P13631).
T3 sequence (P13631 1-454): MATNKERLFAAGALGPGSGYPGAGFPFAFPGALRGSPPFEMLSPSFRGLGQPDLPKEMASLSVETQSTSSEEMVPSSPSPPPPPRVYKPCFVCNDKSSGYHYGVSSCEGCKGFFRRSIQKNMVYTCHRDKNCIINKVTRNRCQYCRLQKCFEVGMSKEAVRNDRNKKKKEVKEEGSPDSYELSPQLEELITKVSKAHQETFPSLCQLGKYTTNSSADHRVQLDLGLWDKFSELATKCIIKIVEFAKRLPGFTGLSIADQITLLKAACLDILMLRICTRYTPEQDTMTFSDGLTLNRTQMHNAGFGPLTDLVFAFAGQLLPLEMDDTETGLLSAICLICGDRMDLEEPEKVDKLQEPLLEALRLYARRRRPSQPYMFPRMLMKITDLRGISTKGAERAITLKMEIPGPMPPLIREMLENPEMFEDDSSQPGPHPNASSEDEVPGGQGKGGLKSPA
Put plainly: ligand binding assay. The settings on record: read-out: RAR Bind. Ki γ.
Source text: as §1

Assay [4] has as its target T4, RXRα (Homo sapiens, UniProt P19793).
T4 construct: expressed in transfected cells
T4 sequence (P19793 1-462): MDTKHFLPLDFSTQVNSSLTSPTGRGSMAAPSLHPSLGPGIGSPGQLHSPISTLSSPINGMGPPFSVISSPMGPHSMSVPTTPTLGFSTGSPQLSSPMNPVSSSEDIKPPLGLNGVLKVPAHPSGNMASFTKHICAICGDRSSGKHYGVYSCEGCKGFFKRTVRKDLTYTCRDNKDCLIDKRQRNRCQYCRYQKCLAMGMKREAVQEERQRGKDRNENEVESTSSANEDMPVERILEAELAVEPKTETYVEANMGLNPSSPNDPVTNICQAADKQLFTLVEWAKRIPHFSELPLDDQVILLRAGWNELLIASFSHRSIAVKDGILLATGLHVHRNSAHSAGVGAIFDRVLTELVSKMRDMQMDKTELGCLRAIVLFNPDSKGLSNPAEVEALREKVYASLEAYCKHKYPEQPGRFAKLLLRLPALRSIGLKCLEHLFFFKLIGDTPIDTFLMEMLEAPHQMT
As to the kind of experiment: holoreceptor transactivation assay. It counts as cell-based. The settings on record: for EC50: holoreceptor assay, read-out: RXR Trans. EC50 α; for RXR Trans. efficacy α: percentage compared to the standard compound.
Source text: as §2, §3

In assay [5] the target is T5, RARβ (Homo sapiens, UniProt P10826).
T5 sequence (P10826 1-455): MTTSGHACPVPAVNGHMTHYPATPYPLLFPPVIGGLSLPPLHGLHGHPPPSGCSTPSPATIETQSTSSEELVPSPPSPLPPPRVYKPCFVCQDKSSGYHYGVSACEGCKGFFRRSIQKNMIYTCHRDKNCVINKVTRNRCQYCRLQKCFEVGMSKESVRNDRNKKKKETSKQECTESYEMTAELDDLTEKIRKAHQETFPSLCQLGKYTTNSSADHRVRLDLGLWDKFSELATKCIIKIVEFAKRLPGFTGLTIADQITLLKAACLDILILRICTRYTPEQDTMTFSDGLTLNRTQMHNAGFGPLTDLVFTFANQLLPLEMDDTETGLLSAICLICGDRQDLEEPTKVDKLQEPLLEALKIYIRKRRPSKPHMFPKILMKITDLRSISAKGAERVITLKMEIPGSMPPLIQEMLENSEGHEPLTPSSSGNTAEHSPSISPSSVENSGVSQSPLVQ
As to the kind of experiment: ligand binding assay. The settings on record: read-out: RAR Bind. Ki β.
Source text: as §1

Assay [6] concerns the target T4, RXRα. As to the kind of experiment: ligand binding assay. The settings on record: read-out: RXR Bind. Ki α.
Source text: as §1

In the case of `CCCOc1c(\C(=C/C=C/C(C)=C/C(=O)O)CC)cc(C(C)C)cc1C(C)C` [Compound 8, 7-(3,5-Diisopropyl-2-propoxy-phenyl)-3-methyl-nona-2,4,6-trienoic acid], the Ki in assay [1] is 170 nM; in assay [3], 310 nM; in assay [5] it was 80 nM; in assay [6] it was 1 nM. In addition, in assay [2], the “RXR Trans. efficacy β” value came to 29%. The EC50 in assay [4] amounted to 1 nM. Also, the “RXR Trans. efficacy α” value in assay [4] was found to be 33%.

Turning to `CCCOc1c(\C(C)=C/C=C/C(C)=C/C(=O)O)cc(C(C)C)cc1C(C)C` [Compound 16, 7-(3,5-Diisopropyl-2-propoxy-phenyl)-3-methyl-octa-2,4,6-trienoic acid], the Ki in assay [1] was 310 nM; in assay [3], 550 nM; in assay [5], 200 nM; in assay [6] it was 1 nM. For the same molecule, in assay [2], the “RXR Trans. efficacy β” value is 33%. In assay [4], the EC50 is 0.4 nM. In addition, the “RXR Trans. efficacy α” value in assay [4] worked out at 34%.
